From ChEMBL document CHEMBL1201862, “PubChem BioAssay data set” (2004)
The source made the active and inactive calls.

Key:
[1] = molecular target: Heat shock protein HSP 90-alpha (Homo sapiens, UniProt P07900); assay type: functional, organism-based
Phospholipase A2 = Phospholipase A2 (Homo sapiens, UniProt P04054); assay type: functional;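 also: confirmatory dose-response counterscreen on phospholipase A2, testing hits that came from an ultra-high-throughput screen for ATG4B inhibitors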
Genome polyprotein = Genome polyprotein (dengue virus type 2, UniProt P29990); assay: Dengue-2 NS5 methyltransferase inhibitors, primary screen, biochemical, confirmation dose response (AID 588689); assay type: functional
Sequence of Genome polyprotein (P29990 2492-3391 limits assumed): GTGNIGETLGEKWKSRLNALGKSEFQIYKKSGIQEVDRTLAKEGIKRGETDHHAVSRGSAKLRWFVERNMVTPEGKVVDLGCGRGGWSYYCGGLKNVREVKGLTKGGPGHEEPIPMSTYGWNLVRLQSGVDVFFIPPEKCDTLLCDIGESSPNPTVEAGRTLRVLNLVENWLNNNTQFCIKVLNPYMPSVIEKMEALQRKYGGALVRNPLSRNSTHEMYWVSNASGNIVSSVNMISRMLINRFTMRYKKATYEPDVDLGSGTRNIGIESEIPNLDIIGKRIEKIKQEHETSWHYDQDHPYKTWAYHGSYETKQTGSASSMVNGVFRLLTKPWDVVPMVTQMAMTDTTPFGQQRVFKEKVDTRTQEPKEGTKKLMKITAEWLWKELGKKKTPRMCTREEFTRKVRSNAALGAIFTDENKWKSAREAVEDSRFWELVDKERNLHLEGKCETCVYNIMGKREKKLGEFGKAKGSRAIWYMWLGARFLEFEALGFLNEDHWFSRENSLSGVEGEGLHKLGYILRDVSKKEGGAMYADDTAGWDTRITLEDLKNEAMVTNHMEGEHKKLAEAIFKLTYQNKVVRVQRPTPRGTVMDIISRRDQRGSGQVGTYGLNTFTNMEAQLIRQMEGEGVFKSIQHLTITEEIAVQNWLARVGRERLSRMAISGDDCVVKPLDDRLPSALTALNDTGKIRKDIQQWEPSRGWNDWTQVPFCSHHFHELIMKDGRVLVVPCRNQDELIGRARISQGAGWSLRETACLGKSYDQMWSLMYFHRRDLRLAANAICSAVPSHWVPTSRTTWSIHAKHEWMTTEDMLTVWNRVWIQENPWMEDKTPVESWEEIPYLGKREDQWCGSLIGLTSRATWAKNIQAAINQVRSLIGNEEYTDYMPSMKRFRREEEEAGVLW

[2] = molecular target: Peroxisome proliferator-activated receptor gamma/Nuclear receptor coactivator 1 (Homo sapiens, UniProt P37231); assay: (§1) TR-FRET dose response biochemical High Throughput Screening assay for agonists of the steroid receptor coactivator 1 (SRC-1) recruitment by the peroxisome proliferator-activated receptor gamma (PPAR gamma): non-selective agonists. [Related pubchem assays (depositor defined):AID1300, AID1808, AID504735, AID631]; assay type: protein assay
[3] = molecular target: Peroxisome proliferator-activated receptor gamma/Nuclear receptor coactivator 3 (Homo sapiens, UniProt P37231); assay: as §1, with “3 (SRC-3)” for “1 (SRC-1)”, “assays: 1301 (Confirmation screen.), 1048 (Primary screen.)]” for “assays (depositor defined):AID1300, AID1808, AID504735, AID631]”; assay type: functional
Sequence of Peroxisome proliferator-activated receptor gamma/Nuclear receptor coactivator 3 (P37231 whole entry): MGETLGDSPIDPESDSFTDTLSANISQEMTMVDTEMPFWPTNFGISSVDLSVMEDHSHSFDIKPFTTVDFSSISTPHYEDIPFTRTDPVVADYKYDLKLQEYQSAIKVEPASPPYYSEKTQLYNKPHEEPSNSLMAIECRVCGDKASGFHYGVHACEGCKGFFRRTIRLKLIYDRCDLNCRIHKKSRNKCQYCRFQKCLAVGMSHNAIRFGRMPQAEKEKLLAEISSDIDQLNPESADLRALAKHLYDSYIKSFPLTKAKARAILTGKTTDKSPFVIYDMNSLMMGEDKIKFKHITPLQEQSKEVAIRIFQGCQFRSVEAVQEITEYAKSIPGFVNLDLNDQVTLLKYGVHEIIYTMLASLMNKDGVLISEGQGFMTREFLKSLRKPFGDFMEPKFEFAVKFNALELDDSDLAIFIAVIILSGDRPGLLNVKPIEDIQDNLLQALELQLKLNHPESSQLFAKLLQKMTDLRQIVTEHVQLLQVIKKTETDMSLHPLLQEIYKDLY
Sequence of Peroxisome proliferator-activated receptor gamma/Nuclear receptor coactivator 3 (Q9Y6Q9 whole entry, further chain): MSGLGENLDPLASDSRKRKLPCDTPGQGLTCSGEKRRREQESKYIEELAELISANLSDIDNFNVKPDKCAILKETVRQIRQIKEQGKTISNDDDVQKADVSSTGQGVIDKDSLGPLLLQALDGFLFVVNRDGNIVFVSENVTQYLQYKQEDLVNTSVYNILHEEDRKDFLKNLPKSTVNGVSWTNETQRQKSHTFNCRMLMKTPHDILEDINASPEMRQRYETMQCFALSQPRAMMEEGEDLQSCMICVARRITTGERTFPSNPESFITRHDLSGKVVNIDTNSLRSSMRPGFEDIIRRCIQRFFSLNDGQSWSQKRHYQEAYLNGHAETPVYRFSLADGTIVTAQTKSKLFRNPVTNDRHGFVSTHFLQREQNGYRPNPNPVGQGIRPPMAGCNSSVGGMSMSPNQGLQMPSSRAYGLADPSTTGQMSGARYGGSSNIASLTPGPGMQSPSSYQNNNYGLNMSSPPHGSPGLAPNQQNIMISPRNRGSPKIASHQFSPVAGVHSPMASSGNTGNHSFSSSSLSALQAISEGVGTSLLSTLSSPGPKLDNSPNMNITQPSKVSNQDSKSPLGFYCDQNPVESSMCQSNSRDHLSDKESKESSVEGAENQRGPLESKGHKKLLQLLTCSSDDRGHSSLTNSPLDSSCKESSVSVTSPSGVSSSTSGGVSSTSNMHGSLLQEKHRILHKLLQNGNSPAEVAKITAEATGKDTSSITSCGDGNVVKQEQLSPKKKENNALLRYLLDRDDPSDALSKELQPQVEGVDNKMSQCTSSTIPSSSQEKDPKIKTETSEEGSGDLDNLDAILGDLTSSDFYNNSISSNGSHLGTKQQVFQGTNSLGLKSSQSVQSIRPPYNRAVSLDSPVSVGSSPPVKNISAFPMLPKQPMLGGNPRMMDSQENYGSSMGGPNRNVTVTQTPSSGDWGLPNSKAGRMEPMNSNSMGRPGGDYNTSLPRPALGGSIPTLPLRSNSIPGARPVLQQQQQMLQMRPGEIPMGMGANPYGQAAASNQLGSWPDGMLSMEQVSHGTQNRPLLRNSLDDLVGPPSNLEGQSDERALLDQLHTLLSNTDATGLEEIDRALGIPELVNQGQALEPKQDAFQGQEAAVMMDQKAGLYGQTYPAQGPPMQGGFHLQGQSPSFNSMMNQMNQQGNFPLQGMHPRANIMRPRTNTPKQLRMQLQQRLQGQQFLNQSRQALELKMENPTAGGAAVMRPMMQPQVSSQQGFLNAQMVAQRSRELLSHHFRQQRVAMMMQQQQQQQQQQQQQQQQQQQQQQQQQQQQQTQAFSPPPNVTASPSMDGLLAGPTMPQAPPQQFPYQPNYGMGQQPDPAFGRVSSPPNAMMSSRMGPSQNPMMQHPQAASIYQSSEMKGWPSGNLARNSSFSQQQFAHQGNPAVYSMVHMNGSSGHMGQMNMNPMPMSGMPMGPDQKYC

[4] = molecular target: Peroxisome proliferator-activated receptor gamma/Nuclear receptor coactivator 2 (Homo sapiens, UniProt P37231); assay: TR-FRET dose response biochemical High Throughput Screening assay for agonists of the steroid receptor coactivator 2 (SRC-2) recruitment by the peroxisome proliferator-activated receptor gamma (PPAR gamma): non-selective agonists. [Related pubchem assays: 1297, 1032 ]; assay type: functional
[5] = cytotoxicity in HEK-293T cells, dose response, cytotoxicity control for BCR NF-kB inhibitor project, luminescence, B-cell screen hits (AID 489021); assay type: functional, cell-based;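 also: HEK-293T cells carrying an NF-kB luciferase reporter; cells exposed to compound for about 14 hours before viability readout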
[6] = molecular target: T1, Replicative DNA helicase DnaB (Mycobacterium tuberculosis, UniProt P9WMR3); assay: DnaB intein splicing inhibitors, dose response, biochemical, cell-free fluorescence (AID 449749); assay type: functional
T1 sequence (P9WMR3 whole entry): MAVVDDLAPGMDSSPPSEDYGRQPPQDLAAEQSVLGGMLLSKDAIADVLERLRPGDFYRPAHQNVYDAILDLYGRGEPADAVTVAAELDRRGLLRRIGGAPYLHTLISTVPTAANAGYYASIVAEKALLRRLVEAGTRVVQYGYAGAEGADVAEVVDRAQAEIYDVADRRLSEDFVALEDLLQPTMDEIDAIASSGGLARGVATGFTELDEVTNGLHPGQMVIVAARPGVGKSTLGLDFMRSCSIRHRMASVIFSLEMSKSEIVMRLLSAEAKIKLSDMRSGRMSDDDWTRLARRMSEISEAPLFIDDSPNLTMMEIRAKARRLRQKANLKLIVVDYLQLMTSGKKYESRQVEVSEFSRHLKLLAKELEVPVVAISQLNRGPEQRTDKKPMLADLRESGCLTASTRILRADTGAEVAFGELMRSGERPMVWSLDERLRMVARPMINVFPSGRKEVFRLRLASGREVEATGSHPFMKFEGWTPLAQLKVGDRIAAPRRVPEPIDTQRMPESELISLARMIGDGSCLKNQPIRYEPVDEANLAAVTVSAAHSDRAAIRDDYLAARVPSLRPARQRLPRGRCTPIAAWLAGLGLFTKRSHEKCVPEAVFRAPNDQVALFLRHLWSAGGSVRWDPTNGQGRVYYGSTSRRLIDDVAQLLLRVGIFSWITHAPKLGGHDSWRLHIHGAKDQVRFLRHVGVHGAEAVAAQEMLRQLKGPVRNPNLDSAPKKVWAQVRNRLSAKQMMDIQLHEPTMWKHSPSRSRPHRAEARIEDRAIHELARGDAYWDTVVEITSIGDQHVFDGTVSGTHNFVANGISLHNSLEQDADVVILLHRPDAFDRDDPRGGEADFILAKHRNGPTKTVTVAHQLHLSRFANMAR

Protein RecA = molecular target: T2, Protein RecA (Mycobacterium tuberculosis, UniProt P9WHJ3); assay: Fluorescence Cell-Free Homogeneous Dose Retest to Identify Inhibitors of RecA-Intein Splicing Activity. [Related pubchem assays (depositor defined):AID2097, AID2223, AID489010, AID492950]; assay type: functional
T2 sequence (P9WHJ3 whole entry): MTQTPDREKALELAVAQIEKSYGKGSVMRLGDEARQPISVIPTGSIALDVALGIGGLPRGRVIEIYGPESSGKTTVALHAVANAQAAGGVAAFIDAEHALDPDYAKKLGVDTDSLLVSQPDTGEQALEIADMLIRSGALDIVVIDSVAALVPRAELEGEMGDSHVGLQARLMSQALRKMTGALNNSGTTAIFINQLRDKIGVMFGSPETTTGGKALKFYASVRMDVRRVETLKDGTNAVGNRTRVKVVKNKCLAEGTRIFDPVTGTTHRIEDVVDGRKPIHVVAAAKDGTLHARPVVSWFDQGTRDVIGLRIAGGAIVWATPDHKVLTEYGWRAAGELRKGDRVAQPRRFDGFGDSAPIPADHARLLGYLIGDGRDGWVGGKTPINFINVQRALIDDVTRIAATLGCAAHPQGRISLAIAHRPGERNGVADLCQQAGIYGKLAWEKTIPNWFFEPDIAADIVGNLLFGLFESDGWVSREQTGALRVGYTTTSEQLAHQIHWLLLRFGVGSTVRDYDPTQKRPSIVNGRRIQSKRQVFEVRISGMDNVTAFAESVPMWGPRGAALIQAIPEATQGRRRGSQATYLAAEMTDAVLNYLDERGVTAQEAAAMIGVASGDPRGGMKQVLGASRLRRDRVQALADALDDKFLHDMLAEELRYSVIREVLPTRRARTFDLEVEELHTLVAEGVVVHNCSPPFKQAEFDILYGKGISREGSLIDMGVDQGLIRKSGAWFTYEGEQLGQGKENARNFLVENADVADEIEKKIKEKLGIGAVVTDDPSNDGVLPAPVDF

Nonstructural protein 1 = Nonstructural protein 1 (Influenza A virus, UniProt Q194T2); assay type: functional, Influenza A virus (A/California/07/2009(H1N1))
Sequence of Nonstructural protein 1 (Q194T2 whole entry): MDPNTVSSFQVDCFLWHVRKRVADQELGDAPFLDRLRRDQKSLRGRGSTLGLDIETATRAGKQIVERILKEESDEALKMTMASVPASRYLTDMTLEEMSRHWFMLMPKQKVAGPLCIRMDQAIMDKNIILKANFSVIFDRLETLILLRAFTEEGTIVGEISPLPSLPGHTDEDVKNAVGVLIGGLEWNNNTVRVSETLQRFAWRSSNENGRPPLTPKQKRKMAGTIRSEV

[7] = molecular target: T3, High affinity choline transporter 1 (Homo sapiens, UniProt Q9GZV3); assay: CHT inhibitors, dose response, cell-based, 5-point CRC, membrane potential dye (AID 504840); assay type: functional
T3 sequence (Q9GZV3 whole entry): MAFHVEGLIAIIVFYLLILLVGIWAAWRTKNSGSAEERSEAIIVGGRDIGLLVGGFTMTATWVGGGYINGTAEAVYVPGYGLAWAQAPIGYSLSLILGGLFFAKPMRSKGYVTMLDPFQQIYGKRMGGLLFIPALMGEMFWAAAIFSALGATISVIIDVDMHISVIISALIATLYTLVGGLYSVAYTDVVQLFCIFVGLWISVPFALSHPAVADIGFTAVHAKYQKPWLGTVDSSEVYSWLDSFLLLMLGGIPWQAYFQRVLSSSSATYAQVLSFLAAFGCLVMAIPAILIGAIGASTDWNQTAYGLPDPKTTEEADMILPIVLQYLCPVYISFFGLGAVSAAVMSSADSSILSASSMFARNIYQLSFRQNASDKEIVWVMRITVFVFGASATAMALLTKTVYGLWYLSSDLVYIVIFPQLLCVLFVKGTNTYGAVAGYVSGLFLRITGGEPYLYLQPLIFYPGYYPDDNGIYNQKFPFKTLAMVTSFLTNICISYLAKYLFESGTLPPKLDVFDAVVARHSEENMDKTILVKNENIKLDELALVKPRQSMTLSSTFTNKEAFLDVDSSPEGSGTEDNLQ

[8] = molecular target: 26S proteasome non-ATPase regulatory subunit 14 (Homo sapiens, UniProt O00487); assay: inhibition of proteasome subunit RPN11 – biochemical, fluorescence polarization, uHTS hits, confirmation (AID 602368); assay type: functional
Sequence of 26S proteasome non-ATPase regulatory subunit 14 (O00487 whole entry): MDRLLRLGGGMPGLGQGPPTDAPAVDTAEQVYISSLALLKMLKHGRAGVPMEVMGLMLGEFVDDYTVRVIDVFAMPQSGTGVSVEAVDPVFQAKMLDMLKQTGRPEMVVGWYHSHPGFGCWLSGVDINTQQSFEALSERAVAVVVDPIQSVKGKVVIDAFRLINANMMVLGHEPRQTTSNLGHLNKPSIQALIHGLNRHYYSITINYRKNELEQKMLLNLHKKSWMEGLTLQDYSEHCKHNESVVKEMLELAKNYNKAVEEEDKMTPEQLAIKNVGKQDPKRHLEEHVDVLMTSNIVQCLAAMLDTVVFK

[9] = molecular target: 72 kDa type IV collagenase (Homo sapiens, UniProt P08253); assay: Dose Response validation of uHTS RPN11 inhibitor hits using a MMP-2 Fluorescence assay.; assay type: functional
Sequence of 72 kDa type IV collagenase (P08253 whole entry): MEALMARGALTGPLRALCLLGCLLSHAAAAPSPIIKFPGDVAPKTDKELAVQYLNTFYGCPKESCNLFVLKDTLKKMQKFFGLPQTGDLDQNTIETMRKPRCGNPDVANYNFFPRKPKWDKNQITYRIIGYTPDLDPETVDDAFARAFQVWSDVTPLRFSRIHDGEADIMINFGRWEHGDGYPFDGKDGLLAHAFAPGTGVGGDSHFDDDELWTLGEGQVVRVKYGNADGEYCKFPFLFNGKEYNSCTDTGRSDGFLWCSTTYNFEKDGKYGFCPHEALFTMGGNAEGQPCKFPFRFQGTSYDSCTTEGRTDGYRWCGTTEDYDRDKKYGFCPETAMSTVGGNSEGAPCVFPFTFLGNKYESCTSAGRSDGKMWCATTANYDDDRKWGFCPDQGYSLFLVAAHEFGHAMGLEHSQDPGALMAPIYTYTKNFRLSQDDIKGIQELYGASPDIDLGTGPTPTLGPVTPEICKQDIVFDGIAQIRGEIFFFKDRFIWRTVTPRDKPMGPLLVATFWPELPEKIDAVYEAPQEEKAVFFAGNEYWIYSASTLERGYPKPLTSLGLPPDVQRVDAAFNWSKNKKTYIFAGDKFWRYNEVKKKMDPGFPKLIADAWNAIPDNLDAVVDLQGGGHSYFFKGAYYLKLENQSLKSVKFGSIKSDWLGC

Prothrombin = Prothrombin (Bos taurus, UniProt P00735); assay: thrombin inhibition, dose response, biochemical, fluorescence polarization, uHTS hits (AID 602369); assay type: functional
[10] = molecular target: T4, RNA-binding protein pos-1 (Caenorhabditis elegans, UniProt G5EF15); assay: inhibitors of POS-1/mex-3 RNA binding, dose response, biochemical, fluorescence polarization (AID 1964);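 also: purified POS-1 fused to maltose binding protein made in E. coli; potency of compounds blocking POS-1 binding to fluorescent RNA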
T4 sequence (G5EF15 whole entry): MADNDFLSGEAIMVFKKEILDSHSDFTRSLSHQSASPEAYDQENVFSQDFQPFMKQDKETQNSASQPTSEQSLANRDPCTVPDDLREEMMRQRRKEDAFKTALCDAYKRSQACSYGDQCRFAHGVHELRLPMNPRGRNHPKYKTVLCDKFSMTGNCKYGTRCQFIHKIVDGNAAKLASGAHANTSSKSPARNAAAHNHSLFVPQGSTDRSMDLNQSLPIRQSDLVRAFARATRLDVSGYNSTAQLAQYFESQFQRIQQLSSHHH

[11] = molecular target: T5, Zinc finger protein mex-5 (Caenorhabditis elegans, UniProt Q9XUB2); assay: MEX-5/TCR-2 RNA interaction inhibitors, dose response, biochemical, C. elegans, fluorescence polarization (AID 1960)
T5 sequence (Q9XUB2 whole entry): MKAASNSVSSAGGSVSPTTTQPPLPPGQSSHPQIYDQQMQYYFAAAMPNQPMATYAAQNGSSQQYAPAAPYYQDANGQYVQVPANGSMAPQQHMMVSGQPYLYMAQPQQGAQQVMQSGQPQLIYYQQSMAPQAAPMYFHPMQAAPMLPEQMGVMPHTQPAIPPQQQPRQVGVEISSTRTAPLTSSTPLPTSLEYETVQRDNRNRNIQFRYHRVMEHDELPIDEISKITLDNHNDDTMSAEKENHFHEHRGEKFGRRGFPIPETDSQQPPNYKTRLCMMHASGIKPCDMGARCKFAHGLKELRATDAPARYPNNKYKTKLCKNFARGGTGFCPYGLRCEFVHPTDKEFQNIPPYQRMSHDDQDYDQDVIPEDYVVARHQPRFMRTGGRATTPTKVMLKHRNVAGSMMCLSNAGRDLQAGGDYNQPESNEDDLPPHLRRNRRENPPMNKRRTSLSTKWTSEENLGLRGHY

[12] = molecular target: T6, Heat shock factor protein 1 (Mus musculus, UniProt P38532); assay: inhibition of MG132-induced HSE-luciferase signal, confirmation, cell-based, NIH3T3, luminescence, dose retest (AID 2382); assay type: functional;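 also: NIH3T3 fibroblasts with HSF1-driven luciferase reporter stressed by proteasome inhibitor MG132; luminescence from HSF1-driven luciferase expression after 8 hours of MG132 stress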
T6 sequence (P38532 whole entry): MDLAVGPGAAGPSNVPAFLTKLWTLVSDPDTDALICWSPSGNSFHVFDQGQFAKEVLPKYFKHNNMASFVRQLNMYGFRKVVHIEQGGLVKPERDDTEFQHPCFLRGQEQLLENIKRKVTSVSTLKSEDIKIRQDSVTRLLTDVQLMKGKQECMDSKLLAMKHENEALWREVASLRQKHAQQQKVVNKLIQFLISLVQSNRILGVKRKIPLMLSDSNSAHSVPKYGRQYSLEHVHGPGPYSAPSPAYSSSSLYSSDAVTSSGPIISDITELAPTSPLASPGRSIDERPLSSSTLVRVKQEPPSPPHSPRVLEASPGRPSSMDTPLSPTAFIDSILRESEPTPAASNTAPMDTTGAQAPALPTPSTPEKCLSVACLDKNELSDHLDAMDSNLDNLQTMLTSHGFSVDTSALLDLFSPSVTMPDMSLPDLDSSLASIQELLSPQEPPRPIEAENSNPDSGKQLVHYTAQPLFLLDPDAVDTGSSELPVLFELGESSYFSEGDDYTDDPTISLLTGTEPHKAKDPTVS

[13] = StAR promoter reporter inhibition counter-screen, dose response, counter-screen for LRH-1 inverse agonist project, cell-based, luminescence, luciferase reporter (AID 651969); assay type: functional
[14] = molecular target: T7, Carboxy-terminal domain RNA polymerase II polypeptide A small phosphatase 1 (Homo sapiens, UniProt Q9GZU7); assay: inhibitors of CTDSP1, concentration-response testing, biochemical assay, absorbance-based, actives from ultra-high-throughput screening (AID 540297); assay type: functional
T7 sequence (Q9GZU7 whole entry): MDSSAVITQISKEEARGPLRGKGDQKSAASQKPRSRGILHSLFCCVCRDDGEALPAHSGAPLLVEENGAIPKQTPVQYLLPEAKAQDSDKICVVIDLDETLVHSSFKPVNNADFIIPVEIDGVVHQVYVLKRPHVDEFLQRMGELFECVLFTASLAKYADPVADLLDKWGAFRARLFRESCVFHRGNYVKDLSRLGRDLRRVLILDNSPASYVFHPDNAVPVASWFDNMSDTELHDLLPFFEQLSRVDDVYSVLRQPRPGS

Sequence of Phospholipase A2 (P04054 whole entry): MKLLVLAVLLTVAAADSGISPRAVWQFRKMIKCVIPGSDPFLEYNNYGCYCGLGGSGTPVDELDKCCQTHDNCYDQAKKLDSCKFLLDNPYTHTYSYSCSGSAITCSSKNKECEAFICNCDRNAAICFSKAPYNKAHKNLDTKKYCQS

Compound: CCCOc1ccc2ccccc2c1/C=C1\SC(=O)NC1=O
- AC50 [1]: 6.89 µM (active)
- IC50 (Phospholipase A2): 15.9 µM (active)

Compound: COc1cc(/C=C2/C(=O)NC(=O)N(c3ccccc3)C2=O)ccc1O
- IC50 (Genome polyprotein): > 100 µM (active)

Compound: CCn1c(=O)cc(SCC(=O)N2CCOCC2)c2ccccc21
- EC50 [2]: > 79.4 µM (inactive)
- EC50 [3]: > 79.4 µM (not active)
- EC50 [4]: > 79.4 µM (not active)
- IC50 [5]: > 80 µM (inactive)

Compound: CCOc1c(Br)cc(/C=C2\C(=O)N(CCC#N)N=C2C)cc1OC
- AC50 [6]: 3.43 µM (active)
- EC50 (Protein RecA): 1.8 µM (active)
- IC50 (Genome polyprotein): > 100 µM (active)

Compound: COc1cc(/C=C2/C(=O)N(c3cccc(Br)c3)N=C2C)cc(OC)c1O
- IC50 (Nonstructural protein 1): 14.5 µM (active)
- AC50 [6]: 3.93 µM (active)
- IC50 [7]: 13.8 µM (active)
- EC50 (Protein RecA): 1.6 µM (active)
- IC50 [8]: 23.1 µM (active)
- IC50 [9]: > 100 µM (inactive)
- IC50 (Prothrombin): 39 µM (active)

Compound: Cc1ccc(N2C(=O)NC(=O)/C(=C\c3cc(C)n(-c4ccc(C(=O)O)cc4)c3C)C2=O)cc1
- EC50 [10]: > 300 µM (not active)
- EC50 [11]: 6.96 µM (active)
- IC50 (Genome polyprotein): > 100 µM (active)

Compound: COc1ccc(CNC(=O)c2nnn(CC(=O)Nc3cc(C)cc(C)c3)c2N)cc1
- EC50 [12]: > 195 µM (not active)
- IC50 [8]: 18.9 µM (active)
- IC50 [9]: > 100 µM (inactive)
- IC50 (Prothrombin): 63 µM (active)

Compound: COc1ccc(NC(=O)CSc2sc3c(O)cc(O)nc3c2C#N)c(OC)c1
- IC50 [13]: 35.9 µM (inactive)

Compound: COc1ccccc1-c1nnc(S)o1
- EC50 [2]: 59.1 µM (inactive)
- EC50 [3]: > 79.4 µM (not active)
- EC50 [4]: 11.9 µM (not active)

Compound: O=C(O)c1cc(/C=C/C(=O)c2cc(F)ccc2O)c2c(c1)COCO2
- IC50 (Genome polyprotein): > 100 µM (active)

Compound: CSc1ccc(NC(=O)CSc2nc3[nH]c(=O)cc(O)c3s2)cc1
- IC50 [14]: 4.06 µM (active)
- IC50 [8]: 68 µM (active)
- IC50 [9]: 40.4 µM (active)
- IC50 (Prothrombin): 88.3 µM (active)
